Results reported in a melting point compilation (Tetko et al.).

| Compound | melting point |
| --- | --- |
| COc1cc2c(cc1C(C)C)C(=O)C2 | 43 °C |
| COc1ccc2c(c1)[nH]c1c(C)nccc12 | 273 °C |
| NCc1ccc(Cl)nc1 | 30 °C |
| N#Cc1cc(C(F)(F)F)ccc1Cl | 38.5 °C |
| C[Si](C)(C)O[Si](C)(C)O[Si](C)(C)O[Si](C)(C)O[Si](C)(C)O[Si](C)(C)C | -59 °C |
| O=C(O)c1ccccc1N=NC1SC(=S)NC1=O (stereo not given) | 244 to 245 °C |
| NC(=S)NN=C1C2CCCC1C1(O)CCCCC1C2c1ccccc1 (stereo not given) | 205 °C |
| CCCCCCCCCCCCCC(=O)Cl | -1 °C |
| O=C(NO)OCc1ccccc1 | 68 °C |
| O=C(Oc1ccc(Cl)cc1)c1ccc(Oc2ccc(C(=O)Oc3ccc(Cl)cc3)cc2)cc1 | 149 °C |
| CCc1ccc(C(c2ccc(C(c3ccc(CC)o3)c3ccc(CC)o3)cc2)c2ccc(CC)o2)o1 | 81 °C |
| O=Cc1ccccc1-c1ccccc1C(=O)O | 128 to 133 °C |
| COc1cc2c(c3oc(=O)c4c(c13)CCOC4=O)C1C=COC1O2 (stereo not given) | 245 °C |
| N#CCCSCCC#N | 24 to 25 °C |
| Cc1cnc(N)c(Br)c1 | 72 °C |
| O=c1c(N2CCCC2)c(N2CCOCC2)c1=O | 251 to 254 °C |

| Compound | melting point |
| --- | --- |
| CCC(C)(O)CNC1C2CCC(C)(C1O)C2(C)C (stereo not given) | 119 °C |
| COc1ccc(CNC(=O)c2cc([N+](=O)[O-])cc([N+](=O)[O-])c2)cc1 | 151 °C |
| CCCCOCN(C(=O)CCl)c1c(CC)cccc1CC | -0.55 °C |
| O=C(O)C1(c2ccccc2)CC1 | 87 °C |
| COP(=S)(OC)Oc1cc(Cl)c(I)cc1Cl | 76 °C |
| O=NN1CCOCC1 | 29 °C |
| COC(=O)c1cc([N+](=O)[O-])cc([N+](=O)[O-])c1 | 110 °C |
| OCc1cc2c(cc1Cl)OCO2 | 70 °C |
| NC(=O)C12CC3CC(CC(C3)C1)C2 | 189 °C |
| CCOC(=O)Cc1n[nH]c2ccc(Cl)cc12 | 77 °C |
| Cc1ccc(N)c(Cl)c1 | 7 °C |
| NNC(=O)c1ccsc1 | 126 to 128 °C |
| CCOc1ccc(CO)cc1OC | 54 to 59 °C |
| Cc1ccc(S(=O)(=O)CC(=O)c2ccccc2)cc1 | 109 to 110 °C |
| CN(C)CCC=C1c2ccccc2Sc2ccc(Cl)cc21 | 97.5 °C |
| C#CC[C@H](NC(=O)OC(C)(C)C)C(=O)O | 85.5 °C |

Continued, values first:

| melting point | Compound |
| --- | --- |
| 85 to 86 °C | CC(=O)OCc1cn(C(C)=O)c2ccccc12 |
| 227 to 229 °C | CC1(C)C2CCC(C2)C12COC(=O)N2 (single isomer, unassigned; (-)) |
| 210 °C | O=C(c1ccc([N+](=O)[O-])cc1)c1noc(-c2ccc(Cl)cc2)c1S(=O)(=O)c1ccccc1 |
| 76 to 80 °C | Cc1nc(-c2cccc(C=O)c2)cs1 |
| 82.2 to 83.5 °C | CC(C)(C)OC(=O)C(C(=O)Cc1ccccc1)c1ccccc1 (stereo not given) |
| 98.8 to 99 °C | CCC1N(O)C(C)(C)C(C(=O)O)=[N+]1[O-] (stereo not given) |
| 46 °C | CC(=O)OC(OC(C)=O)c1ccccc1 |
| 211 °C | O=C(Nc1ccccc1)c1cc(Cl)ccc1O |
| 172 °C | CC(C)Oc1ccc(C(=O)NS(=O)(=O)c2ccc(N)cc2)cc1 |
| 338 to 340 °C | O=c1n2ccccc2nc2nc3ccccc3n12 |
| 97 to 98.5 °C | CSc1cc(-c2ccc(Oc3ccccc3)cc2)n[nH]1 |
| 106 °C | CC(O)CN(CC(C)O)C(=O)COC(=O)c1ccccc1 (stereo not given) |
| 158 °C | CC12CCC(=O)C=C1CCC1C3CCC4(CCC(=O)O4)C3CCC12C (stereo not given) |
| 184 °C | O=C(O)CCOc1ccc2c(c1)[nH]c1ccccc12 |
| 113 to 115 °C | O=C(Cl)c1ccc(-c2cccs2)cc1 |
| 203 to 205 °C | O=C(O)c1scc2c1CCCC2 |
| 112 °C | CCOC(=O)C(Cl)=Cc1cc(N2C(=O)C3=C(CCCC3)C2=O)ccc1Cl |
| 192 °C | Nc1c(CN2CCOCC2)c(=O)oc2ccccc12 |
| 163 to 164 °C | COC(=O)c1ccc(C(=O)OC)nc1 |
| 15 °C | CC(C)C(C)(C)[Si](C)(C)Cl |
| 182 to 184 °C | NC(=O)Nc1cccc(O)c1 |
| 203 to 205 °C | Cc1nc(NC(=N)N)sc1Br |
| 156 °C | c1ccc2c(c1)Nc1ccccc1O2 |
| 71 °C | O=S(=O)(Cl)c1cc(Br)ccc1Br |
| 214 to 215 °C | COC(=O)c1ccc2c(C=O)cn(C(=O)OC(C)(C)C)c2c1 |
| 179 °C | NS(=O)(=O)c1cc(C(=O)OCOC(=O)c2ccccc2)c(NCc2ccco2)cc1Cl |
| 264 °C | CC(=O)NC1C(Oc2ccc([N+](=O)[O-])cc2)OC(CO)C(O)C1O (stereo not given) |
| 83 to 85 °C | CC(=O)/C(=N\Nc1cc(Cl)ccc1Cl)C(=O)C(F)(F)F |
